In patent US6576648B2, “Compound with growth hormone releasing properties” (Novo Nordisk A/S, priority 1999, dated 2003):
Non-standard residues stand in square brackets, D forms with d. Residues, ends and D or L forms follow the SMILES beside them.

What was measured:
[1] = Oral bioavailability, pharmacokinetics in fasted Beagle dogs; assay type: in vivo; conditions: intravenous and oral administration in 5% glucose solution
Method: The pharmacokinetics of the compound can be investigated in fasted Beagle dogs.
Intravenous and oral administration of the test compound, in 5% glucose solution, was separated by a one weeks washout.
Blood samples were collected immediately before drug administration (time zero) and than 0.08, 0.25, 0.50, 0.75, 1.0, 1.5, 2.0, 3.0, 4.0, 5.0, and 6.0 hours after administration.
The plasma samples were stored frozen (<−18° C.) pending analysis.
An HPLC method with solid phase extraction and UV detection was used for the quantification of the compound in plasma.
The pharmacokinetic parameters for compounds were calculated by non-compartmental methods using the PC based pharmacokinetic software WinNonlin, version 1.1 (Scientific Consulting Inc., Apex, N.C., USA).

[2] = test system: endogenous growth hormone release; experiment: Release of endogenous growth hormone in vivo
[3] = test system: Carboxypeptidase mix: carboxypeptidase Y and B; experiment: Metabolic stability in carboxypeptidase mix (ESMS, SIM of molecular ion); conditions: carboxypeptidase Y and B 0.025 mg/ml, 50 mM ammoniumacetate pH 4.5, 37° C., 24 h, decrease in SIM signal
Method: (§1) The compound is dissolved at a concentration of 1 mg/ml in water. 25 ml of this solution is added to 175 ml of the respective enzyme-solution (resulting in an enzyme:substrate ratio (w/w) of approximately 1:5). The solution is left at 37° C. overnight. 10 ml of the various degradation solutions is analyzed against a corresponding zero-sample using flow injection electrospray mass spectrometry (ESMS) with selected ion monitoring of the molecular ion. If the signal has decreased more than 20% compared to the zero-sample, the remainder of the solution is analyzed by HPLC and mass spectrometry in order to identify the extent and site(s) of degradation precisely.
(§2) Enzymes (trypsin, chymotrypsin, elastase aminopeptidase M and carboxypeptidase Y and B) were all purchased from Boehringer Mannheim GmbH (Mannheim, Germany) […]
(§3) Quantification of the compound (before and after degradation) was done on the API III instrument using single ion monitoring of the molecular ion in question with flow injection of the analyte. […]
(§4) Identification of degradation products furthermore involved the use of plasma desorption mass spectrometry (PDMS) with sample application on nitrocellulose coated targets and standard instrumental settings. The accuracy of the hereby determined masses is generally better than 0.1%. […]

[4] = test system: Pancreatic enzyme mix: trypsin, chymotrypsin and elastase; experiment: Metabolic stability in pancreatic enzyme mix (ESMS, SIM of molecular ion); conditions: chymotrypsin and elastase 0.025 mg/ml, 100 mM ammoniumbicarbonate pH 8.0, 37° C., 24 h, decrease in SIM signal
Method: as §1, §2, §3, §4

Compound	oral availability [1]	ability to release endogenous growth hormone in vivo [2]	Stability in Carboxypeptidase mix [3]	Stability in Pan. Enzyme mix [4]
CN(C)N(C)C(=O)[C@@]1(Cc2ccccc2)CCCN(C(=O)[C@@H](Cc2c[nH]c3ccccc23)NC(=O)C(C)(C)N)C1 [Example 1, 2-Amino-N-[(1R)-2-[(3R)-3-benzyl-3-(N,N′,N′-trimethylhydrazinocarbonyl)piperidin-1-yl]-1-(1H-indol-3-ylmethyl)-2-oxoethyl]-2-methylpropionamide]	about 50%	possess the ability to release endogenous growth hormone in vivo	–	–
GHRP-2	–	–	− (Unstable (more than 20% decrease in SIM signal after 24 h in degradation solution))	− (Unstable (more than 20% decrease in SIM signal after 24 h in degradation solution))
C[C@H](NC(=O)[C@@H](Cc1c[nH]c2ccccc12)NC(=O)[C@@H](N)Cc1c[nH]cn1)C(=O)N[C@@H](Cc1c[nH]c2ccccc12)C(=O)N[C@H](Cc1ccccc1)C(=O)N[C@@H](CCCCN)C(N)=O [GHRP-6] (H-H[dW]AW[dF]K-NH2)	–	–	− (Unstable (more than 20% decrease in SIM signal after 24 h in degradation solution))	− (Unstable (more than 20% decrease in SIM signal after 24 h in degradation solution))
